Measurements published in ChEMBL document CHEMBL1133346, “The synthesis and evaluation of 3-substituted-7-(alkylidene)cephalosporin sulfones as beta-lactamase inhibitors” (Bioorg Med Chem Lett, 2000).

Assays:
Beta-lactamase class C [1] = target: T1, Beta-lactamase class C (Enterobacter cloacae, UniProt Q59401); test: Inhibition of class C beta-lactamase derived from Enterobacter cloacae P99
Beta-lactamase TEM = Beta-lactamase TEM (Enterobacter cloacae, UniProt Q6W9J1); test: Inhibition of class A TEM-1 beta-lactamase derived from Enterobacter cloacae
Beta-lactamase = Beta-lactamase (Staphylococcus aureus, UniProt P00807); test: Inhibition of class A beta-lactamase derived from Staphylococcus aureus strain PC1
Beta-lactamase class C [2] = target: T1, Beta-lactamase class C; test: Inhibition of GC1 extended spectrum class C beta-lactamase; design: species or system Enterobacter cloacae GC1
Beta-lactamase class C [3] = target: T1, Beta-lactamase class C; test: The compound was evaluated for inhibition against the GC1 extended spectrum Class C beta-lactamase
Beta-lactamase class C [4] = target: T1, Beta-lactamase class C; test: The compound was evaluated for inhibition against Class C beta-lactamase derived from Enterobacter cloacae P99

Beta-lactamase TEM, sequence (Q6W9J1 whole entry): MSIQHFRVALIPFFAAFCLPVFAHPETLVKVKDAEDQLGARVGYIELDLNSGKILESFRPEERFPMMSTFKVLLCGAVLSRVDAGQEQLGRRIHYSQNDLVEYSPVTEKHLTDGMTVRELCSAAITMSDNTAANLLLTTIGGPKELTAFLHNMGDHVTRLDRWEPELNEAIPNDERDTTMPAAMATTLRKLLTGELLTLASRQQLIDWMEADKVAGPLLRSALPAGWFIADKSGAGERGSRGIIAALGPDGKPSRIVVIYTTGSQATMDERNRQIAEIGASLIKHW
Beta-lactamase, sequence (P00807 whole entry): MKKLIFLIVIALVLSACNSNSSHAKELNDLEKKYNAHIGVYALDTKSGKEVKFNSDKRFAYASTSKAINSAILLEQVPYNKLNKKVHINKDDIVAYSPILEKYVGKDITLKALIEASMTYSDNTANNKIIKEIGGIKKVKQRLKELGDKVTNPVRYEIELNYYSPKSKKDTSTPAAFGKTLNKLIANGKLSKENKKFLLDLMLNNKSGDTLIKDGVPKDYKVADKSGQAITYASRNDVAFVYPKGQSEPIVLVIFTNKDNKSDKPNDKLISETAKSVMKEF
T1 sequence (Q59401 whole entry): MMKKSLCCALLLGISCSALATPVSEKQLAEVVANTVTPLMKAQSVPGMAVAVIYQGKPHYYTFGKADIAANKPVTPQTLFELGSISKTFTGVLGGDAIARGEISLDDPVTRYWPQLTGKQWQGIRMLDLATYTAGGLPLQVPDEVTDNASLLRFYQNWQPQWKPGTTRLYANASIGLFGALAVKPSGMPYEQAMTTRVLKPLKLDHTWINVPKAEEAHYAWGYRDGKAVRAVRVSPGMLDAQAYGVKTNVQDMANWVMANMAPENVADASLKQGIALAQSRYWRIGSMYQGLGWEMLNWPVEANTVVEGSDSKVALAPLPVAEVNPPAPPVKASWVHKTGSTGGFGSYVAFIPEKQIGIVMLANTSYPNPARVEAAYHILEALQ

Row | Compound | IC50 (Beta-lactamase class C [1]) [nM] | IC50 (Beta-lactamase TEM) [nM] | IC50 (Beta-lactamase) [nM] | IC50 (Beta-lactamase class C [2]) [nM] | IC50 (Beta-lactamase class C [3]) [nM] | IC50 (Beta-lactamase class C [4]) [nM]
1 | NC(=O)OCC1=C(C(=O)O)N2C(=O)/C(=C/c3ccccn3)C2S(=O)(=O)C1 (stereo unspecified) | 2300 | 10500 | 7900 | 260 | – | –
2 | C=C1C(/C=C/C(=O)OC)=C(C(=O)O)N2C(=O)/C(=C/c3ccccn3)C2S1(=O)=O (stereo unspecified) | 30 | 2900 | 6000 | 60 | – | –
3 | C=CC(=O)OCC1=C(C(=O)O)N2C(=O)/C(=C/c3ccccn3)C2S(=O)(=O)C1 (stereo unspecified) | 100 | – | 110000 | 900 | – | –
4 | O=C(COc1ccccc1)OCC1=C(C(=O)O)N2C(=O)/C(=C/c3ccccn3)C2S(=O)(=O)C1 (stereo unspecified) | 100 | 800 | 100000 | 130 | – | –
5 | O=C(O)C1=C(/C=C/[N+](=O)[O-])CS(=O)(=O)C2/C(=C\c3ccccn3)C(=O)N12 (stereo unspecified) | 20 | 70 | 200 | 100 | – | –
6 | N#CC1=C(C(=O)O)N2C(=O)/C(=C/c3ccccn3)C2S(=O)(=O)C1 (stereo unspecified) | 29 | 2340 | 280000 | – | – | –
7 | COC(=O)/C(Cl)=C/C1=C(C(=O)O)N2C(=O)/C(=C/c3ccccn3)C2S(=O)(=O)C1 (stereo unspecified) | 900 | 70 | 1400 | 180 | – | –
8 | O=C(Cc1ccc(O)c(O)c1)OCC1=C(C(=O)O)N2C(=O)/C(=C/c3ccccn3)C2S(=O)(=O)C1 (stereo unspecified) | 3600 | 17400 | 67000 | – | – | –
9 | O=C(O)/C=C/C1=C(C(=O)O)N2C(=O)/C(=C/c3ccccn3)C2S(=O)(=O)C1 (stereo unspecified) | 310 | 2500 | 31000 | – | – | –
10 | CCC(=O)OCC1=C(C(=O)O)N2C(=O)/C(=C/c3ccccn3)C2S(=O)(=O)C1 (stereo unspecified) | – | 311000 | 15400 | – | – | –
11 | NC(=O)/C=C/C1=C(C(=O)O)N2C(=O)/C(=C/c3ccccn3)C2S(=O)(=O)C1 (stereo unspecified) | 26 | 90 | 100 | 10 | – | –
12 | N#CCC1=C(C(=O)O)N2C(=O)/C(=C/c3ccccn3)C2S(=O)(=O)C1 (stereo unspecified) | 900 | 5600 | 8900 | – | – | –
13 | C=C/C=C/C1=C(C(=O)O)N2C(=O)/C(=C/c3ccccn3)C2S(=O)(=O)C1 (stereo unspecified) | 24000 | 68000 | 75000 | – | – | –
14 | NC(=O)/C=C/C1=C(C(=O)O)N2C(=O)/C(=C/c3cccs3)C2S(=O)(=O)C1 (stereo unspecified) | 290 | 900 | 154000 | – | – | –
15 | C=C1C(/C=C/C(=O)OC(C)(C)C)=C(C(=O)O)N2C(=O)/C(=C/c3ccccn3)C2S1(=O)=O (stereo unspecified) | 440000 | – | – | 150000 | – | –
16 | O=C(O)C1=C(/C=C/c2cccc[n+]2[O-])CS(=O)(=O)[C@@H]2/C(=C\c3ccccn3)C(=O)N12 | 600 | 6 | 8600 | 100 | – | –
17 | O=C(O)C1=C(/C=C/c2ccccn2)CS(=O)(=O)[C@@H]2/C(=C\c3ccccn3)C(=O)N12 | 180 | 200 | 4300 | – | – | –
18 | COCC1=C(C(=O)O)N2C(=O)/C(=C/c3ccccn3)C2S(=O)(=O)C1 (stereo unspecified) | 700 | 700 | 28000 | 1200 | – | –
19 | COC(=O)/C=C/C1=C(C(=O)O)N2C(=O)/C(=C/c3ccccn3)C2S(=O)(=O)C1 (stereo unspecified) | 200 | 20 | 300 | 300 | – | –
20 | CCOC(=O)CNC(=O)OCC1=C(C(=O)O)N2C(=O)/C(=C/c3ccccn3)C2S(=O)(=O)C1 (stereo unspecified) | 400 | 260000 | 33400 | 45000 | – | –
21 | N#C/C=C/C1=C(C(=O)O)N2C(=O)/C(=C/c3ccccn3)C2S(=O)(=O)C1 (stereo unspecified) | – | 14 | 720 | – | 12 | 10
22 | CC(C)(C)OC(=O)/C=C/C1=C(C(=O)O)N2C(=O)/C(=C/c3ccccn3)C2S(=O)(=O)C1 (stereo unspecified) | 1480 | – | 240000 | – | – | –
23 | C=C1C(/C=C/C(=O)O)=C(C(=O)O)N2C(=O)/C(=C/c3ccccn3)C2S1(=O)=O (stereo unspecified) | 6600 | 2500 | – | – | – | –
